We go through three compounds from US20250041309A1 (ZHENAO JINYINHUA PHARMACEUTICAL, priority 2021, published 2025).

Values joined by “and” are separate entries in the source; they are usually repeats but may differ in a detail not shown here. Equal entries are not always repeated. Structures can show the parent of a compound that is named as a salt.

The nature of series [1]: Weight monitoring of MCAO rats, oral administration (Example 21). Format: in vivo, SD rats. To be noted: gavage 4 mg/kg twice per day; for Weight D 0: D 0, group mean; for Weight D 4: D 4, group mean; for Weight D 7: D 7, group mean; for Weight D 11: D 11, group mean; for Weight D 14: D 14, group mean; for Weight D 18: D 18, group mean; for Weight D 21: D 21, group mean; for Weight D 25: D 25, group mean; for Weight D 28: D 28, group mean. On the procedure:
Administration route: gavage administration; Dosage: 4 mg/kg body weight, twice per day; Administration time: gavage administration twice in the morning and evening per day (administered immediately after modeling). A rat model of middle cerebral artery ischemia/reperfusion (MCAO/R) was created using the suture method. […] After surgical exposure of the carotid artery, suture was performed without ischemia-reperfusion injury; • (3) Treatment group 1: MCAO model+[…] citrate drug treatment group; • (4) Treatment group 2: MCAO model+Sildenafil citrate drug treatment group; […]

Series [2] relates to MCAO rats. Kind of series: Cerebral infarction range (TTC) in MCAO rats, oral administration (Example 23). Format: in vivo, SD rats. Particulars: gavage 8 mg/kg*2, after 14 days; for Improvement rate % of cerebral infarction range: versus model control group; for Total cerebral infarction %: x ± s, n = 20. How it is done: (§1) Administration route: gavage administration;
(§2) Dosage: 8 mg/kg body weight, twice a day;
(§3) Administration time: gavage administration twice a day in the morning and evening (administered immediately after modeling).
(§4) A rat model of middle cerebral artery ischemia/reperfusion (MCAO/R) was created using suture-occluded method.
(§5) The successfully modeled rats were randomly divided into 4 groups based on their scores, with an average of 20 rats in each group.
At the end of the experiment, the brain tissue of the rats was collected by bloodletting and frozen in a −20° C. freezer, and then is sliced into a thickness of 2 mm per slice. The brain tissue slices were placed in a 2% red tetrazolium (TTC) solution and incubated at 37° C. for 5 minutes. The infarcted tissue appeared white, while the non-infarcted tissue appeared red. Image J software was used to measure the area of cerebral infarction and the percentage of infarct area to the total brain area was calculated.

Series [3] deals with MCAO rats. As to the kind of experiment: Neurological deficits (mNSS) score in MCAO rats, oral administration (Example 21). Details: scale not given here. The class given is in vivo, SD rats. To be noted: gavage 4 mg/kg twice per day, one value per rat (30 per group). On the procedure:
as §1
Dosage: 4 mg/kg body weight, twice per day;
Administration time: gavage administration twice in the morning and evening per day (administered immediately after modeling).
A rat model of middle cerebral artery ischemia/reperfusion (MCAO/R) was created using the suture method.
Scores were evaluated using the mNSS rat neurological deficit scoring method. The neurological deficits of the experimental rats were evaluated on 14 days after modeling. • ?

Series [4] relates to MCAO rats. Kind of series: Morris water maze experiment in MCAO rats, oral administration (Example 21). Format: in vivo, SD rats. Particulars: gavage 4 mg/kg twice per day, 14 days water maze test. How it is done: Morris water maze experiment: testing the learning and memory abilities of rats.
The Morris water maze experiment is conducted continuously for 6 days each time, with training conducted for the first 5 days and testing conducted on 6th day.
For each of the tests, the rats were trained four times a day at a fixed time period for the first five days (once in the first, second, third, and fourth quadrants respectively). At the beginning of the training, a platform was placed in the first quadrant, and from any starting points of the four quadrants on the pool wall, the rats were placed into the pool, facing the pool wall. The camera system records the time when the rats found the platform and their swimming path. Four training sessions involved placing rats into water from four different starting points. If the rat finds the platform or cannot find it within 60 seconds, the experimenter will guide it to the platform, rest on the platform for 10 seconds, and then proceed to the next experiment.
The rats were removed from the platform, dried with a soft cloth, and put back into the cage. Afterwards, the next experiment on the rat was performed until the numbered animals had finished swimming, and then the next set of experiments was conducted.
This experiment was conducted on the 14th day after administration. […]

The test system of series [5] is MCAO rats. As to the kind of experiment: Neurological function (behavioral) score in MCAO rats, oral administration (Example 23). Format: in vivo, SD rats. To be noted: gavage 8 mg/kg twice a day; after 3, 7 and 14 days administration. How it is done: as §1, §2, §3, §4
After 2 hours of embolization, then reperfusion, according to the scoring criteria in the attached table, the degree of neurological damage in the animals was scored using a blind method. Those with significant neurological deficits (>8 points) were considered successful in modeling.
as §5
Neurological function score: evaluation was conducted before treatment, 3 days, 7 days, and 14 days after treatment.

In series [6] the test system is ischemic stroke model rats. Kind of series: Neurological function (behavioral) score, ischemic stroke model rats, intravenous administration (Example 22). The class given is in vivo, SD rats. Also on record: scale not given here. To be noted: 10 mg/kg iv qd 7 d, x ± s, n = 10. An excerpt: (§6) On the day of the experiment, the rat was anesthetized with isoflurane gas and placed in a supine position for fixation. The skin was cut along the midline of the neck to expose the right common carotid artery. The nerves and fascia around the blood vessels from the common carotid artery bifurcation to the base of the skull were carefully removed, and the external and internal carotid arteries were separated sequentially. The MCAO suture was inserted from the free end of the external carotid artery, and the nylon suture was introduced into the internal carotid artery from the distal end of the external carotid artery. It was inserted into the Willis ring of the middle cerebral artery to effectively block the middle cerebral artery. The length of the inserted suture was 18-20 mm away from the bifurcation of the common carotid artery. Then the free end of the external carotid artery was ligated along with the endovascular suture to prevent bleeding. […] Animals were kept in cages. After 2 hours of embolization, then reperfusion, according to the scoring criteria in the attached table, the degree of neurological damage in the animals was scored using a blind method. Those with significant neurological deficits (>8 points) were considered successful in modeling. • ? Grouping and administration The animals successfully modeled were randomly divided into three groups based on their scores, namely the model control group, compound 1 AD group ([…] citrate group) 10 mg/kg, and compound 2 XD group (Sildenafil citrate group) 10 mg/kg, with 10 animals in each group. […] The endpoint of the experiment was 14 days after administration, and the dosage is detailed in the table below. This experiment was administered intravenously with a dosage of 10 mg/kg and a volume of 5 mL/kg, once per day for consecutive 7 days. Score before treatment, 3 days after treatment, 7 days after treatment, and 14 days after treatment.

The subject of series [7] is ischemic stroke model rats. As to the kind of experiment: Cerebral infarction range (TTC), ischemic stroke model rats, intravenous administration (Example 22). The class given is in vivo, SD rats. To be noted: 10 mg/kg iv qd 7 d.
Text: as §6, with “cages.” for “cages. After 2 hours of embolization, then reperfusion, according to the scoring criteria in the attached table, the degree of neurological damage in the animals was scored using a blind method. Those with significant neurological deficits (>8 points) were considered successful in modeling. • ? Grouping and administration”, “At the end of the experiment, the brain tissue of the rats was collected by bloodletting” for “Score before treatment, 3 days after treatment, 7 days after treatment,”, “frozen in a -20° C. freezer, then are sliced with a thickness of 2 mm per slice. The brain tissue slices were placed in a 2% red tetrazolium (TTC) solution and incubated at 37° C. for 5 minutes. The infarcted tissue appeared white, while the non-infarcted tissue appeared red.” for “14 days after treatment.”

Series [8] can be described thus: Physical and chemical properties of the experimental drugs (Example 23).

Take `CCCc1nn(C)c2c(=O)[nH]c(-c3cc(S(=O)(=O)N4C[C@@H](C)N[C@@H](C)C4)ccc3OCC)nc12` [Aildenafil, 1-[3-(6,7-dihydro-1-methyl-7-oxy-3-n-propyl-1H-pyrazolo[4,3-d]pyrimidin-5-yl)-4-ethoxybenzenesulfonyl]-3,5-dimethylpiperazine]: in series [1], the “Weight D 0” value is listed as 303.9 g, the “Weight D 4” value is on record as 251.4 g, the “Weight D 7” value is 253.8 g and the “Weight D 11” value is reported as 274.1 g. In series [1], the “Weight D 14” value was 287.2 g, the “Weight D 18” value is reported as 312.0 g, the “Weight D 21” value stood at 321.3 g and the “Weight D 25” value is given as 341.9 g. Also, the “Weight D 28” value in series [1] was determined as 345.0 g. In series [2], the “Improvement rate % of cerebral infarction range” value (“Improvement rate %” for short) stood at 31.5% and the “Total cerebral infarction %” value is on record as 17.0 ± 6.7 %. Also, the “Score for neurological deficits (mNSS) after 14 days of administration, individual rats” value in series [3] is 7 (7×) and 5 (3×) and 6 (7×) and 8 (6×) and 9 (4×) and 10 (2×). Also, the “average latency period, Morris water maze” value in series [4] worked out at 8.93 s. In series [5], the “behavioral scores compared with the model control group” value is on record as “significant improvement”.
As for `CCCc1nn(C)c2c(=O)[nH]c(-c3cc(S(=O)(=O)N4CCN(C)CC4)ccc3OCC)nc12` [Sildenafil citrate], in series [1], the “Weight D 0” value is given as 297.7 g, the “Weight D 4” value came to 251.4 g, the “Weight D 7” value was found to be 249.0 g and the “Weight D 11” value is reported as 266.9 g. Also, in series [1], the “Weight D 14” value amounted to 282.4 g, the “Weight D 18” value is 307.6 g, the “Weight D 21” value was found to be 318.3 g and the “Weight D 25” value came to 339.6 g. For the same compound, the “Weight D 28” value in series [1] was 345.9 g. Also, the “behavioral score, 3 days after medication” value in series [6] (3 days after medication) was determined as 7.4 ± 1.4. The “behavioral score, 7 days after medication” value in series [6] (7 days after medication) was 6.1 ± 1.7. Further, the “behavioral score, 14 days after medication” value in series [6] (14 days after medication) is recorded as 4.9 ± 1.7. Also, the “behavioral score, Before medication” value in series [6] (before medication) was determined as 9.6 ± 0.5. The “Score for neurological deficits (mNSS) after 14 days of administration, individual rats” value in series [3] is 8 (10×) and 9 (8×) and 7 (7×) and 10 (3×) and 5 and 6. Also, the “average latency period, Morris water maze” value in series [4] was 16.88 s. Moreover, the “Total cerebral infarction %” value in series [7] (14 days after administration, x ± s, n = 10) was found to be 21.5 ± 8.6%. Besides, in series [7] (14 days, versus model control group), the “Improvement rate %” value was 14.0%.
As to Yukinafil citrate, the “solubility in DMF or DMSO (in words)” value in series [8] (DMF or DMSO) is “soluble”. Moreover, the “solubility in water (in words)” value in series [8] (water) was “soluble”. In series [2], the “Improvement rate %” value worked out at 13.1% and the “Total cerebral infarction %” value is 21.2 ± 6.3%. For the same compound, the “behavioral scores compared with the model control group” value in series [5] is listed as “trend of improvement”.
